For twelve compounds, GI50 and TGI results are on record in PubChem BioAssay (NCI).

Among the test systems are 786-0 renal; CCRF-CEM leukemia; EKVX NSCLC; HL-60(TB) leukemia; MALME-3M melanoma; NCI/ADR-RES ovarian; SK-MEL-5 melanoma; SNB-75 CNS; UACC-62 melanoma; SR leukemia.
Holding throughout (assay): NCI-60 cell line screen, 48 h

Each structure is given as a SMILES string.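 Compound exposure: 48 hours, 5 concentrations, 96-well plates. GI50 marks 50% less growth. TGI is the concentration that stops growth completely.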

Take `O=C1CC(c2cccc(O)c2)C2(C(=O)NC(=S)NC2=O)C(c2cccc(O)c2)C1` (stereo unspecified): the GI50 in the experiment on 786-0 renal, in the experiment with CCRF-CEM leukemia, in the experiment on EKVX NSCLC, in the experiment with HL-60(TB) leukemia, in the experiment on MALME-3M melanoma and in the experiment with NCI/ADR-RES ovarian was > 100 µM throughout. The GI50 with SK-MEL-5 melanoma, with SNB-75 CNS and in the experiment with UACC-62 melanoma was > 100 µM in each case. Further, the TGI in the experiment with 786-0 renal, in the experiment with CCRF-CEM leukemia, in the experiment with EKVX NSCLC, in the experiment on HL-60(TB) leukemia, in the experiment on MALME-3M melanoma and in the experiment on NCI/ADR-RES ovarian was > 100 µM throughout. The TGI with SK-MEL-5 melanoma, in the experiment with SNB-75 CNS and with UACC-62 melanoma was > 100 µM each time.

Take `O=c1cc(-c2ccccc2)oc2cc(O)c(O)c(O)c12`: the GI50 is 9.87 µM in the experiment on 786-0 renal; 2.39 µM in the experiment with CCRF-CEM leukemia; 18.9 µM with EKVX NSCLC; 55.1 µM in the experiment with HL-60(TB) leukemia; 16 µM in the experiment with NCI/ADR-RES ovarian; 9.47 µM in the experiment with SK-MEL-5 melanoma. Further, the GI50 in the experiment with SNB-75 CNS is > 100 µM; with UACC-62 melanoma it was 9.39 µM. The TGI with 786-0 renal was 27.3 µM; in the experiment on CCRF-CEM leukemia, > 100 µM; with EKVX NSCLC it was 63.3 µM; with HL-60(TB) leukemia it was > 100 µM; in the experiment with NCI/ADR-RES ovarian, 44.6 µM; in the experiment on SK-MEL-5 melanoma, 45.3 µM. In addition, the TGI in the experiment on SNB-75 CNS is > 100 µM; with UACC-62 melanoma, 31.9 µM.

Take `O=C(C=Nc1ccccc1C(=O)[O-])c1cccs1.O=C(C=Nc1ccccc1C(=O)[O-])c1cccs1.[Co+2]`: the TGI in the experiment with 786-0 renal, in the experiment with CCRF-CEM leukemia, with HL-60(TB) leukemia, in the experiment on MALME-3M melanoma, in the experiment with SR leukemia and with UACC-62 melanoma was > 100 µM throughout.

On to `Nc1ncnc2c1ncn2Cc1ccc(C23CC4CC(CC(C4)C2)C3)c(OCc2cc(F)c(F)cc2F)c1`, for which the GI50 in the experiment with 786-0 renal is 17.5 µM; in the experiment with CCRF-CEM leukemia, 2.4 µM; in the experiment with HL-60(TB) leukemia, 3.06 µM; with MALME-3M melanoma, 4.59 µM; with NCI/ADR-RES ovarian it was 6.49 µM; in the experiment with SK-MEL-5 melanoma, 0.955 µM. Further, the GI50 is > 100 µM with SNB-75 CNS and 4.75 µM in the experiment with UACC-62 melanoma. The TGI with 786-0 renal is > 100 µM; with CCRF-CEM leukemia, 6.84 µM; with HL-60(TB) leukemia, 10.7 µM; with MALME-3M melanoma, > 100 µM; in the experiment on NCI/ADR-RES ovarian it was > 100 µM; in the experiment on SK-MEL-5 melanoma, > 100 µM. Besides, the TGI with SNB-75 CNS and in the experiment with UACC-62 melanoma was > 100 µM each time.

For `O=c1c2ccccc2c(Br)c(Br)c2ccccc12`, the GI50 in the experiment with 786-0 renal was 14.7 µM; in the experiment with EKVX NSCLC, 14.2 µM; in the experiment with MALME-3M melanoma, 2.66 µM; in the experiment on NCI/ADR-RES ovarian it was 16.5 µM; in the experiment on SK-MEL-5 melanoma, 13.6 µM; in the experiment on SNB-75 CNS, 19.2 µM. Also, the GI50 with UACC-62 melanoma was 18.3 µM. Also, the TGI in the experiment on 786-0 renal came out at 29.8 µM; in the experiment on EKVX NSCLC it was 64.3 µM; in the experiment on MALME-3M melanoma it was 7.65 µM; in the experiment with NCI/ADR-RES ovarian, 40.6 µM; with SK-MEL-5 melanoma, 31.6 µM; in the experiment with SNB-75 CNS it was 56 µM. The compound further registered a TGI in the experiment with UACC-62 melanoma of 59.5 µM.

For the compound `COC(c1cccc(C(O)(C(F)(F)F)C(F)(F)F)c1)(C(F)(F)F)C(F)(F)F`, the TGI was 31.8 µM with 786-0 renal; 33.3 µM in the experiment on EKVX NSCLC; 35.3 µM with MALME-3M melanoma; 32.1 µM in the experiment with SNB-75 CNS; 51.4 µM in the experiment on SR leukemia; 28.2 µM in the experiment with UACC-62 melanoma.

With `COc1ccc2c(c1)C(=O)N1CCOC1C2C(=O)O` (stereo unspecified), the TGI with 786-0 renal, with CCRF-CEM leukemia, in the experiment on EKVX NSCLC, with HL-60(TB) leukemia, with SK-MEL-5 melanoma and in the experiment with SNB-75 CNS was > 100 µM in each case. The TGI with SR leukemia and in the experiment with UACC-62 melanoma was > 100 µM in each case.

Regarding `C#CCN(Cc1nc2cc(C(F)(F)F)ccc2nc1-c1ccccc1)c1ccc(OC(F)(F)F)cc1`, the GI50 with 786-0 renal was > 100 µM; in the experiment on EKVX NSCLC it was 32.6 µM; in the experiment on MALME-3M melanoma, > 100 µM; in the experiment with NCI/ADR-RES ovarian it was > 100 µM; in the experiment with SK-MEL-5 melanoma, 34 µM; with SNB-75 CNS, > 100 µM. Besides, the GI50 with UACC-62 melanoma is 48.6 µM. For the same compound, the TGI in the experiment with 786-0 renal, with EKVX NSCLC, in the experiment on MALME-3M melanoma, in the experiment on NCI/ADR-RES ovarian, in the experiment with SK-MEL-5 melanoma and in the experiment with SNB-75 CNS was > 100 µM throughout. Also, in the experiment on UACC-62 melanoma, the TGI was > 100 µM.

As to `CCCOC(=O)C1CCC(=O)N1C(=O)C(C)Cl` (stereo unspecified), the TGI in the experiment with 786-0 renal, in the experiment on CCRF-CEM leukemia, with EKVX NSCLC, in the experiment with HL-60(TB) leukemia, with MALME-3M melanoma and in the experiment on SK-MEL-5 melanoma was > 100 µM in each case. For the same compound, the TGI in the experiment with SNB-75 CNS and in the experiment with UACC-62 melanoma was > 100 µM each time.

`COc1cc2c3c(n(CCCN(CCN)CCCn4c5c(c6cc(OC)c(OC)cc6c4=O)C(=O)c4cc6c(cc4-5)OCO6)c(=O)c2cc1OC)-c1cc2c(cc1C3=O)OCO2`: the GI50 with 786-0 renal is 0.314 µM; in the experiment with CCRF-CEM leukemia, 0.116 µM; in the experiment with EKVX NSCLC it was 11.9 µM; in the experiment on NCI/ADR-RES ovarian it was 2.22 µM; in the experiment on SK-MEL-5 melanoma, 1.04 µM; in the experiment on SNB-75 CNS, 2.54 µM. For the same compound, the GI50 in the experiment with UACC-62 melanoma was 0.24 µM. The TGI with 786-0 renal was 1.51 µM; in the experiment on CCRF-CEM leukemia it was 0.407 µM; with EKVX NSCLC, > 62.6 µM; in the experiment on NCI/ADR-RES ovarian, > 76.1 µM; in the experiment with SK-MEL-5 melanoma, 3.34 µM; in the experiment with SNB-75 CNS it was > 100 µM. This compound also yielded a TGI in the experiment with UACC-62 melanoma of 0.858 µM.

In the case of `COc1cc2c(cc1O)-c1c(cnn1-c1ccc([N+](=O)[O-])cc1)CCC2`, the TGI in the experiment with 786-0 renal is > 100 µM; in the experiment with CCRF-CEM leukemia, 30.6 µM; with EKVX NSCLC, 80.5 µM; in the experiment on MALME-3M melanoma, 29.2 µM; with NCI/ADR-RES ovarian, 42.7 µM; in the experiment with SK-MEL-5 melanoma, 26.2 µM. Also, the TGI is > 100 µM in the experiment with SNB-75 CNS and 8.42 µM with UACC-62 melanoma.

Regarding `CC1OC(n2ccc(=O)[nH]c2=O)C=C(OC(=O)c2ccccc2)C1=O` (stereo unspecified), the TGI with 786-0 renal, with CCRF-CEM leukemia, with EKVX NSCLC, in the experiment on HL-60(TB) leukemia, with MALME-3M melanoma and in the experiment with SK-MEL-5 melanoma was > 100 µM each time. The values for the TGI with SNB-75 CNS and with UACC-62 melanoma were 63.1 µM and > 100 µM, respectively.
